Assay results as given in patent US20260191749A1, “COMPOSITION AND PROCESS OF MAKING BIO-BASED UPCYCLED OILS IN FLOW REACTORS” (RiKarbon, Inc., priority 2022, published 2026).

Tests used:
Type in all cases: physicochemical
[1] = I2 number, USP-NF-2022, issue 1
Protocol: (§1) Specifications of Product. Key specifications of RKBA-14, RKBA17, RKBA-22 and RKBA28/33 products were determined by various ASTM methods.

Viscosity, ASTM D445 = assay: Viscosity, ASTM D445
Protocol: as §1

RI of upcycled oils = assay: RI of upcycled oils
Protocol: as §1

Flash point, ASTM D93 = assay: Flash point, ASTM D93
Protocol: as §1

[2] = Boiling point, ASTM D1120, ASTM D6352
Protocol: as §1

Density, ASTM D1209 = assay: Density, ASTM D1209
Protocol: as §1

[3] = Freezing point, ASTM S2386
Protocol: as §1

Pour point, ASTM D6749 = settings: neat oil
Protocol: as §1

## CCCCCCC(CCCCC)CCCCC [RKBA-17]
[1]
  12 number: <0.3g/ g/100 g
Viscosity, ASTM D445
  Viscosity at 40° C.: 3.42 cSt
RI of upcycled oils
  RI: 1.4
Flash point, ASTM D93
  Flash point: 121 ± 13° ° C.
[2]
  Boiling point: 288 ± 12 °C
Density, ASTM D1209; at 60º F
  Density: 0.7895 g/mL

## CCCCCCCCCCCC(CCCCC)CCCCC [RKBA-22]
[3]
  Freezing point: −10.5 ± −4 °C
Viscosity, ASTM D445; 20° C.
  Viscosity at 20° C.: 11.35 cSt
Viscosity, ASTM D445
  Viscosity at 40° C.: 6.31 cSt
Viscosity, ASTM D445; 100° C.
  Viscosity at 100° C.: 1.96 cSt
Flash point, ASTM D93
  Flash point: 153 ± 8° ° C.
[2]
  Boiling point: 319 ± 5 °C
Density, ASTM D1209; at 25° C.
  Density: 0.8049 g/mL
Pour point, ASTM D6749
  Pour Point: −21 °C
